Drawing on US8431593B2, “Heteroaryl amide derivatives” (H. Lundbeck A/S, priority 2006, dated 2013), this text covers IC50 for 23 molecules.

The target of the assay is T1, P2X7 receptor (Homo sapiens, UniProt Q99572).
T1 construct: host or cells: SH-SY5Y
T1 sequence (Q99572 1-595): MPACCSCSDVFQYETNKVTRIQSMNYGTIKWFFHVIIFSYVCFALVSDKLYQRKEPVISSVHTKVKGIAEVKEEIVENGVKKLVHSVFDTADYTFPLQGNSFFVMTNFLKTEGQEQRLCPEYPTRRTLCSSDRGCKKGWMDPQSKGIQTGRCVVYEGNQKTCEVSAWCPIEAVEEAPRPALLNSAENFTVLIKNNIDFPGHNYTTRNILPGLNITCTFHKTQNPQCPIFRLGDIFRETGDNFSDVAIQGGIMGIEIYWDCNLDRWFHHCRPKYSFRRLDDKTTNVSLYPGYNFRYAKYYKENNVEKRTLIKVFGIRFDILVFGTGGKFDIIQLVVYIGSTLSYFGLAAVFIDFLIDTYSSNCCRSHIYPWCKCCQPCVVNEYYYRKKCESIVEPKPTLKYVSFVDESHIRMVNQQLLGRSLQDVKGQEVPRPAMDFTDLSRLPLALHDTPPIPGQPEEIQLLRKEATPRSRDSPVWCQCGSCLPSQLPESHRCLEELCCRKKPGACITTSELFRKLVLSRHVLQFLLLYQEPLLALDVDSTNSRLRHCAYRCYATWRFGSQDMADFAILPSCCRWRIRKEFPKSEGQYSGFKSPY
Put plainly: P2X7 calcium mobilization assay, high throughput, antagonist activity (Example 4A). The format is cell-based. Particulars: 50% decrease in the fluorescence response of cells exposed to 80 μM of 2′(3′)-O-(4-benzoyl-benzoyl)adenosine 5′-triphosphate; Example 4A; read-out: IC50. Put shortly:
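FLIPR^TETRA calcium read-out: maximum RFU per well minus average no-agonist control, with agonist wells giving the average positive maximum. Cells seeded at 100,000/well one day ahead, dye-loaded 1 h, rinsed, then exposed to compound for 1 h at room temperature.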
For the molecule `N[C@@H]1CCN(Cc2cn3c(C(=O)NCC(CC4CC4)c4ccccc4)cccc3n2)C1` (some centres unmarked) [Compound 782, 2-[(3-aminopyrrolidin-1-yl)methyl]-N-(3-cyclopropyl-2-phenylpropyl) imidazo [1,2-a]pyridine-5-carboxamide], the IC50 was less than 2000 nM.

On to `N[C@@H]1CCN(Cc2cn3c(C(=O)NCC(CC4CCC4)c4ccccc4)cccc3n2)C1` (some centres unmarked) [Compound 783, 2-[(3-aminopyrrolidin-1-yl)methyl]-N-(3-cyclobutyl-2-phenylpropyl) imidazo [1,2-a]pyridine-5-carboxamide], for which the concentration for half-maximal inhibition (IC50) was less than 2000 nM.

Take `CC(C)(C)OC(=O)N[C@@H]1CCN(Cc2cn3c(C(=O)NCC(CC4CCCCC4)c4ccccc4)cccc3n2)C1` (some centres unmarked) [Compound 785, tert-butyl [1-({5-[(3-cyclohexyl-2-phenylpropyl)carbamoyl]imidazo[1,2-a]pyridin-2-yl}methyl)pyrrolidin-3-yl]carbamate]: the IC50 is less than 2000 nM.

Regarding `N[C@@H]1CCN(Cc2cn3c(C(=O)NCC(CC4CCCC4)c4ccccc4)cccc3n2)C1` (some centres unmarked) [Compound 786, 2-[(3-aminopyrrolidin-1-yl)methyl]-N-(3-cyclopentyl-2-phenylpropyl) imidazo[1,2-a] pyridine-5-carboxamide], the IC50 was less than 2000 nM.

For the molecule `N[C@@H]1CCN(Cc2cn3c(C(=O)NCC(CC4CCCCC4)c4ccccc4)cccc3n2)C1` (some centres unmarked) [Compound 787, 2-[(3-aminopyrrolidin-1-yl)methyl]-N-(3-cyclohexyl-2-phenylpropyl) imidazo[1,2-a] pyridine-5-carboxamide], the IC50 was less than 2000 nM.

With `CC(C)(C)OC(=O)Nc1cn2c(C(=O)NCC34CC5CC(CC(C5)C3)C4)cccc2n1` [Compound 788, tert-butyl {5-[(adamantan-1-ylmethyl)carbamoyl]imidazo[1,2-a]pyridin-2-yl}carbamate], the IC50 was less than 2000 nM.

As for `CC(C)CC(CNC(=O)c1cccc2nc(CC(=O)N3CCCC(N(C)C)C3)cn12)c1ccccc1` (centres unmarked) [Compound 789, 2-{2-[3-(dimethylamino)piperidin-1-yl]-2-oxoethyl}-N-(4-methyl-2-phenylpentyl) imidazo[1,2-a] pyridine-5-carboxamide], the concentration for half-maximal inhibition (IC50) is less than 2000 nM.

`CN(C)C1CCCN(C(=O)Cc2cn3c(C(=O)NC[C@H]4CCC5CC4C5(C)C)cccc3n2)C1` (stereo partly drawn) [Compound 790, 2-{2-[3-(dimethylamino)piperidin-1-yl]-2-oxoethyl}-N-{[(2S)-6,6-dimethylbicyclo [3.1.1]hept-2-yl]methyl}imidazo [1,2-a]pyridine-5-carboxamide]: the IC50 is less than 2000 nM.

On to `CC1(C)C2CC[C@H](CNC(=O)c3cccc4nc(CC(=O)NC5CCCC5)cn34)C1C2` (stereo partly drawn) [Compound 791, 2-[2-(cyclopentylamino)-2-oxoethyl]-N-{[(2S)-6,6-dimethylbicyclo [3.1.1]hept-2-yl]methyl}imidazo [1,2-a]pyridine-5-carboxamide], for which the half-maximal inhibitory concentration (IC50) was less than 2000 nM.

For the molecule `CC(C)CC(CNC(=O)c1cccc2nc(CC(=O)N3CCCC(N(C)C)C3)cn12)c1ccc(Cl)cc1` (centres unmarked) [Compound 792, N-[2-(4-chlorophenyl)-4-methylpentyl]-2-{2-[3-(dimethylamino)piperidin-1-yl]-2-oxoethyl} imidazo[1,2-a] pyridine-5-carboxamide], the IC50 is less than 2000 nM.

Regarding `CC1(C)C2CC[C@H](CNC(=O)c3cccc4nc(CC(=O)NCC(F)(F)F)cn34)C1C2` (stereo partly drawn) [Compound 793, N-{[(2S)-6,6-dimethylbicyclo [3.1.1]hept-2-yl]methyl}-2-{2-oxo-2-[(2,2,2-trifluoroethyl)amino]ethyl}imidazo [1,2-a]pyridine-5-carboxamide], the IC50 was less than 2000 nM.

`CC(C)CC(CNC(=O)c1cccc2nc(CC(=O)NC3CCCC3)cn12)c1ccc(Cl)cc1` (centres unmarked) [Compound 794, N-[2-(4-chlorophenyl)-4-methylpentyl]-2-[2-(cyclopentylamino)-2-oxoethyl]imidazo [1,2-a]pyridine-5-carboxamide]: the IC50 is less than 2000 nM.

Turning to `CC1(C)C2CC[C@H](CNC(=O)c3cccc4nc(CC(=O)N5CCSCC5)cn34)C1C2` (stereo partly drawn) [Compound 795, N-{[(2S)-6,6-dimethylbicyclo[3.1.1]hept-2-yl]methyl}-2-(2-oxo-2-thiomorpholin-4-ylethyl)imidazo[1,2-a] pyridine-5-carboxamide], the IC50 was less than 2000 nM.

On to `CC(C)CC(CNC(=O)c1cccc2nc(CC(=O)NCC(F)(F)F)cn12)c1ccc(Cl)cc1` (centres unmarked) [Compound 796, N-[2-(4-chlorophenyl)-4-methylpentyl]-2-{2-oxo-2-[(2,2,2-trifluoroethyl)amino]ethyl} imidazo[1,2-a] pyridine-5-carboxamide], for which the IC50 is less than 2000 nM.

As to `CC(C)CC(CNC(=O)c1cccc2nc(CC(=O)N3CCSCC3)cn12)c1ccccc1` (centres unmarked) [Compound 797, N-(4-methyl-2-phenylpentyl)-2-(2-oxo-2-thiomorpholin-4-ylethyl)imidazo [1,2-a]pyridine-5-carboxamide], the IC50 is less than 2000 nM.

Turning to `CC(C)CC(CNC(=O)c1cccc2nc(CC(=O)N3CCSCC3)cn12)c1ccc(Cl)cc1` (centres unmarked) [Compound 798, N-[2-(4-chlorophenyl)-4-methylpentyl]-2-(2-oxo-2-thiomorpholin-4-ylethyl)imidazo[1,2-a] pyridine-5-carboxamide], the IC50 is less than 2000 nM.

Turning to `CCOC(=O)C(Cc1ccc(Cl)cc1)c1cn2c(C(=O)NCC34CC5CC(CC(C5)C3)C4)cccc2n1` (centres unmarked) [Compound 800, ethyl 2-{5-[(adamantan-1-ylmethyl)carbamoyl]imidazo[1,2-a]pyridin-2-yl}-3-(4-chlorophenyl) propanoate], the IC50 was less than 2000 nM.

As to `CCOC(=O)C(Cc1ccc(OC)cc1)c1cn2c(C(=O)NCC34CC5CC(CC(C5)C3)C4)cccc2n1` (centres unmarked) [Compound 801, ethyl 2-{5-[(adamantan-1-ylmethyl)carbamoyl]imidazo[1,2-a]pyridin-2-yl}-3-(4-methoxyphenyl) propanoate], the IC50 is less than 2000 nM.

Turning to `CCOC(=O)C(CC(=O)N1CCOCC1)c1cn2c(C(=O)NCC34CC5CC(CC(C5)C3)C4)cccc2n1` (centres unmarked) [Compound 802, ethyl 2-{5-[(adamantan-1-ylmethyl)carbamoyl]imidazo[1,2-a]pyridin-2-yl}-4-morpholin-4-yl-4-oxobutanoate], the IC50 is less than 2000 nM.

Consider `O=C(NCC12CC3CC(CC(C3)C1)C2)c1cccc2nc(C(CC(=O)N3CCOCC3)C(=O)O)cn12` (centres unmarked) [Compound 803, 2-{5-[(adamantan-1-ylmethyl)carbamoyl]imidazo[1,2-a]pyridin-2-yl}-4-morpholin-4-yl-4-oxobutanoic acid], for which the IC50 was less than 2000 nM.

Turning to `O=C(NCC12CC3CC(CC(C3)C1)C2)c1cccc2nc(C(Cc3ccc(Cl)cc3)C(=O)O)cn12` (centres unmarked) [Compound 804, 2-{5-[(adamantan-1-ylmethyl)carbamoyl]imidazo[1,2-a]pyridin-2-yl}-3-(4-chlorophenyl) propanoic acid], the IC50 is less than 2000 nM.

Consider `COc1ccc(CC(C(=O)O)c2cn3c(C(=O)NCC45CC6CC(CC(C6)C4)C5)cccc3n2)cc1` (centres unmarked) [Compound 805, 2-{5-[(adamantan-1-ylmethyl)carbamoyl]imidazo[1,2-a]pyridin-2-yl}-3-(4-methoxyphenyl) propanoic acid], for which the IC50 is less than 2000 nM.

`CC(C)(C)OC(=O)C(C#N)Cc1cn2c(C(=O)NCC34CC5CC(CC(C5)C3)C4)cccc2n1` (centres unmarked) [Compound 806, tert-butyl 3-{5-[(adamantan-1-ylmethyl)carbamoyl]imidazo[1,2-a]pyridin-2-yl}-2-cyanopropanoate]: the IC50 was less than 2000 nM.
